# Assay results from US20050148634A1, “1-N-Aminobenzimidazole derivatives” (ZERIA PHARMACEUTICAL CO., LTD, priority 2002, published 2005).
# Where a name gives a salt, the structure may show the parent alone.
# Experiments:
# [1] = biological target: T1, H+/K+-ATPase (Sus scrofa, UniProt P19156); test: Test 1 proton pump inhibitory effect: H+/K+-ATPase enzyme inhibiting activity at pH 1; type: biochemical; conditions: swine stomach enzyme sample; test compound pretreated in pH 1 hydrochloric acid solution with 50% DMSO for 15 minutes; ATP substrate
# T1 construct: An interface fraction obtained by the centrifugation was collected; from tissue; host or cells: swine stomach mucosal layer, membrane fraction from the sucrose interface
# Experimental: Test 1 (Proton Pump Inhibitory Effect)
# (1) Preparation of H^+/K^+-ATPase Enzyme Sample
# A swine stomach which had been stored frozen was separated into a muscularis and a mucosal layer. After the mucosal layer was disrupted with a mixer in 5 volumes of 20 mmol/L tris-HCl buffer containing 0.25 mol/L of sucrose and 1 mmol/L of EGTA (pH 7.4, hereafter abbreviated as “tris-HCl buffer”), centrifugation was conducted at 9,000×g for 30 minutes. The supernatant was gently overlaid on 20 mmol/L tris-HCl buffer containing 30% of sucrose and 1 mmol/L of EGTA (pH 7.4, 8 mL), followed by ultracentrifugation at 100,000×g for 60 minutes. An interface fraction obtained by the centrifugation was collected and subjected to centrifugation twice under 113,000×g for 60 minutes. The sediment was suspended with tris-HCl buffer, and the suspension was homogenized at low rotational speed to provide an enzyme sample. The enzyme sample was stored frozen at −80° C. Using the method reported by Smith et al. (Anal. Biochem., 150, 76-85 (1985)), the thus-obtained sample was quantitatively analyzed for its protein content with a BCA protein assay reagent. The above procedure was all conducted under water cooling.
# (2) Discussion about H+/K^+-ATPase Enzyme Inhibiting Activity at pH 1
# Following a method making use of a method for the quantitation of inorganic phosphorus as a degradation product (Biochem. Biophys. Res. Commun., 40, 880-886 (1970)), an assay of H^+/K^+-ATPase enzyme inhibiting activity was performed by using ATP as a substrate. As a hydrochloric acid solution for the pretreatment of each test compound, a 1×10^−1 mol/L (pH 1) solution of hydrochloric acid with 50% DMSO contained therein was used. Solutions of each test compound at various concentrations were added to aliquots of the hydrochloric acid solution such that the solutions were diluted 1,000-fold, and the thus-diluted solutions were left over at room temperature for 15 minutes. […] 840-μL Aliquots of an enzyme solution (5 μg proteins) diluted with the TE buffer were then added. After incubated at 37° C. for 30 minutes, 50-μL aliquots of 40 mmol/LATP solution (dissolved in the TE buffer free of KCl) were added to initiate an enzymatic reaction (total volume: 1 mL, final ATP concentration: 2 mmol/L). Subsequent to incubation at 37° C. for 30 minutes, 2-mL aliquots of ice-cold 12% trichloroacetic acid were added to terminate the enzymatic reaction. A molybdenum reagent (1 mL; 3.75% ammonium molybdate/1.5 mol/L sulfuric acid) and butyl acetate (5 mL) were added. After vigorous shaking and mixing for 5 minutes, the absorbance of a butyl acetate layer was measured at 310 nm. From absorbances obtained by dissolving KH2PO4 solutions of various concentrations in aliquots of an 8% TCA solution and performing a similar procedure, a standard curve was prepared to perform a conversion of each quantity of inorganic phosphorus. The assay was conducted in duplicate. From a difference between an average quantity of inorganic phosphorus in the case of the KCl-containing TE buffer and an average quantity of inorganic phosphorus in the case of the KCl-free TE buffer, a residual activity was determined. Supposing that the activity of the control value (DMSO) was 100%, the percent inhibition of the compound was calculated. As the inhibition potency of each test compound, an IC50 value was calculated and presented. The test compounds were al used by dissolving them in dimethyl sulfoxide immediately before their use.
# [2] = tested on: histamine-stimulated gastric acid secretion; test: Test 2 gastric acid secretion inhibitory effect, acute fistula method; type: in vivo, Sprague-Dawley (SD) rats; conditions: male SD rats, administered into the duodenum, total gastric acid secreted on 3rd-5th hours, Probit method; for ED50: Rattus norvegicus
# Experimental: Test 2 (Gastric Acid Secretion Inhibitory Effect)
# (1) As laboratory animals, seven-week old male Sprague-Dawley (SD) rats were purchased from CHARLES RIVER JAPAN, INC. Subsequent to preliminary rearing for 5 days or longer, they were used in an experiment.
# Each test medicine was suspended or dissolved in a 0.5% carboxymethylcellulose sodium solution to prepare a volume of 2.5 mL/kg.
# (2) Measurement of Gastric Acid Secretion
# Using rats fasted for 18 hours, histamine-stimulated gastric acid secretion in an acute fistula method following the method reported by Hiramatsu et al. (Dig. Dis. Sci., 39, 689-697 (1994)) was measured. Described specifically, each rat was lightly anesthetized with diethyl ether. After that, a winged tube needle with 3.8% citric acid solution filled therein was caused to dwell in the caudal vein. Celiotomy was performed, and the pyloric part of the stomach was ligated. A small hole was then formed in the duodenum, and a feeding tube with physiological saline filled therein was caused to dwell there. After the interior of the stomach was washed with physiological saline, a polyethylene-made fistula tube (inner diameter: 4 mm) was fitted to the proventriculus part and an incised part of the proventriculus was ligated to hold the fistula tube in place. The stomach and duodenum were returned into the abdominal cavity. Celiotomy was performed with the fistula tube and feeding tube being left extending outside, and the rat was placed in a Ballman Cage Type II. Histamine was continuously injected through the winged needle allowed to dwell in the caudal vein (8 mg/kg/h, 1.38 mL/h). Fifteen minutes later, the gastric juice was sampled, and after that, the gastric juice was sampled at intervals of 1 hour. After the amount of each gastric juice sample was recorded, it was titrated with 0.1 mol/L NaOH to a final point of pH 7.0. From the volume required for the titration, the acidity was calculated. The quantity of the secreted gastric acid was determined from the product of the amount of the gastric juice and the acidity. Incidentally, the rats were divided into groups such that the total amount of the first gastric juice samples became equal in each group. Each test medicine was administered in a volume of 2.5 mL/kg into the duodenum through the feeding tube fitted beforehand in the duodenum. To a control group, 0.5% Na—CMC solution was administered.
# (3) Analysis of the Results
# From the results so obtained, data were presented in terms of average ±S.D. The sum of quantities of gastric acid secreted on the 3rd, 4th and 5th hours after the first sampling was recorded as a total quantity of secreted gastric acid. The percent inhibition in each group was calculated from the total quantity of secreted gastric acid in the control group and the total quantity of secreted gastric acid in the group. From the percent inhibition in each group, the 50% effective dose (ED50) was next calculated by the Probit method.
# [3] = biological target: T2, human CYP2C19 (Homo sapiens, UniProt P33261); test: Test 3 human CYP2C19 activity inhibition test (S-(+)-mephenyloin to 4'-hydroxymephenyloin); type: in vitro ADME; conditions: test compound 10 μM, microsomes from human CYP2C19 expression system, formed 4'-hydroxymephenyloin compared with control
# T2 construct: purchased Sumitomo Chemical Co., Ltd
# Experimental: Test 3 (Human CPY2C19 Activity Inhibition Test)
# CYP2C19 specifically induces the metabolic reaction of from S-(+)-mephenyloin into 4′-hydroxymephenyloin. Using the CYP2C19 expression system, the inhibitory effect of each test substance was investigated based on the amount (concentration) of formed 4′-hydroxymephenylion as an index of CYP2C19 activity.
# a) Metabolic Activity Test
# As a reaction mixture, a 125 μmol/L solution of S-(+)-mephenyloin in methanol (50 μL) and a 25 μmol/L solution of each test substance in methanol (0, 10, 100 or 200 μL) were added to 10-mL test tube made of glass, and the solvent was distilled off under a nitrogen gas stream (40° C.).
# After incubated at 37° C. for 10 minutes, a 12% aqueous solution of perchloric acid (50 μL) was added to terminate the reaction.
# Subsequent to the termination of the reaction, 10 μg/mL methyl p-hydroxybenzoate (50 μL) as an internal standard (I.S.) and diethyl ether (2 mL) were added. The resulting mixture was shaken for 10 minutes, and then centrifuged (3,000 rpm, 10 minutes). The organic layer was separately collected, and under a nitrogen gas stream (40° C.), the solvent was distilled off. The residue was dissolved in a mobile phase (200 μL), and an analysis was conducted by high performance liquid chromatography (HPLC).
# Using a solution of 4′-hydroxymephenyloin in lieu of the S-(+)-mephenyloin solution, a calibration line was prepared following the above-described reaction method. Quantitation was conducted based on a peak area ratio of 4′-hydroxymephenyloin to the I.S. Comparing the formed amount of 4′-hydroxymephenyloin as a control with that of 4′-hydroxymephenyloin at the time of the existence of the test compound, the comparison result was used as an index of activity.
# HPLC was conducted under the following HPLC conditions A or HPLC conditions B. […]
# T2 sequence (P33261 whole entry): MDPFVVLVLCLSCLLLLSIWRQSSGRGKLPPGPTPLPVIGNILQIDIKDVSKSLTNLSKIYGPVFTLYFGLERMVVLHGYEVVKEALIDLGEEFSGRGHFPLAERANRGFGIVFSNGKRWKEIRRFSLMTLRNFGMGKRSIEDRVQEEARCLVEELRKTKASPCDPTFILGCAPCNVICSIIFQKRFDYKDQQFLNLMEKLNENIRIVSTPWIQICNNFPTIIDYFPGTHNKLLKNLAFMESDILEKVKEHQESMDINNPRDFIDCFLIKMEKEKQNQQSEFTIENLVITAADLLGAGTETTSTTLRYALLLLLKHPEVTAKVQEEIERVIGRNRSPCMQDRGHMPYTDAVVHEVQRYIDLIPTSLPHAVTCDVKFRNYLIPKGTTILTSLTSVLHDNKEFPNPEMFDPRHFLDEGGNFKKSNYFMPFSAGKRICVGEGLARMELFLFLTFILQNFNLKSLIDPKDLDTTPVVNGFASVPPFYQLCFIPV
# T1 sequence (P19156 2-1034 limits assumed): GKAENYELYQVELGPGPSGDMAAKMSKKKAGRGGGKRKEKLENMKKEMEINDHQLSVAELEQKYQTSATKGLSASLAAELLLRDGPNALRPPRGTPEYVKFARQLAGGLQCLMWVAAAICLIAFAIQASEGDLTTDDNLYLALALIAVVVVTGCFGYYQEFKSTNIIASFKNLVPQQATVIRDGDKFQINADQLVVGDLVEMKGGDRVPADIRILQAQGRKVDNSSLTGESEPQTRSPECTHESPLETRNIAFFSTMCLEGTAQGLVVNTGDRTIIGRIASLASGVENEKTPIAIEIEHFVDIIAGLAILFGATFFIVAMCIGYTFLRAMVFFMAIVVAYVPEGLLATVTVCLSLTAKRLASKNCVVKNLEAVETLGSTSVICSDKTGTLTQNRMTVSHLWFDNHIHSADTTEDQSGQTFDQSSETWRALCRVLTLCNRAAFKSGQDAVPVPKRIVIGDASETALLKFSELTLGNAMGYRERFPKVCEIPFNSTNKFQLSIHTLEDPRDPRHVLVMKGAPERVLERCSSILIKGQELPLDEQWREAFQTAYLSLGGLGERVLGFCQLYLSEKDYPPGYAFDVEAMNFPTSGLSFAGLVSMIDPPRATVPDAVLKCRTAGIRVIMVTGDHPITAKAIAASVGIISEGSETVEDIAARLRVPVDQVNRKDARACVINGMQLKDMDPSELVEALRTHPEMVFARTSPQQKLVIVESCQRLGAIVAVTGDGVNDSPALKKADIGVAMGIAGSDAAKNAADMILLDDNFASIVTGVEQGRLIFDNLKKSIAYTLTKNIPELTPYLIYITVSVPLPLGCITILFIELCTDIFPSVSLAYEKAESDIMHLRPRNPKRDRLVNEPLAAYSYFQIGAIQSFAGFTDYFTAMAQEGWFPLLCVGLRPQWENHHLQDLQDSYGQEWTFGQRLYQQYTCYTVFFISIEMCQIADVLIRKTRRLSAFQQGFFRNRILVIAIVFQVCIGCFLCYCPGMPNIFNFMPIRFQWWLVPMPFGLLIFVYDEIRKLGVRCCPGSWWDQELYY
# T1 sequence (P18434 whole entry partner): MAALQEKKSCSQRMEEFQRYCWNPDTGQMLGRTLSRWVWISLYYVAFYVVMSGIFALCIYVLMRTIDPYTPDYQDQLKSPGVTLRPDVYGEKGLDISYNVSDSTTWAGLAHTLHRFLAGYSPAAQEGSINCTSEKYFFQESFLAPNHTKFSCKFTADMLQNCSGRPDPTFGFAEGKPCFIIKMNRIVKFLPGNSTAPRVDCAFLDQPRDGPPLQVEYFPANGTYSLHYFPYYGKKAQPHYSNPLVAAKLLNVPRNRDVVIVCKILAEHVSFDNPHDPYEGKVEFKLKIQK
CYP2C19 activity inhibition (%) [3],Structure (SMILES),IC50 [1],further results
–,Cc1c(OCC(F)(F)F)ccnc1C[S+]([O-])c1nc2ccccc2n1NCC(O)c1ccccc1 (mixture of isomers) [Example 51],3.32 µM,Gastric acid secretion inhibitory effect ED50 [2]: 2.4 mg/kg
63.8%,Cc1c(OCC(F)(F)F)ccnc1C[S+]([O-])c1nc2ccccc2n1NCC(C)O (mixture of isomers) [Example 55],–,Gastric acid secretion inhibitory effect ED50 [2]: 3.6 mg/kg
–,Cc1c(OCCCC(F)(F)F)ccnc1C[S+]([O-])c1nc2ccccc2n1N (racemic) [Example 25],–,Gastric acid secretion inhibitory effect ED50 [2]: 1.1 mg/kg
–,COC(=O)CNn1c([S+]([O-])Cc2nccc(OCC(F)(F)F)c2C)nc2ccccc21 (racemic) [Example 47],4.85 µM,–
–,Cc1c(OCC(F)(F)F)ccnc1C[S+]([O-])c1nc2ccccc2n1NCc1ccccc1 (racemic) [Example 49],1.03 µM,–
–,Cc1c(OCC(F)(F)F)ccnc1C[S+]([O-])c1nc2ccccc2n1NCCc1ccccc1 (racemic) [Example 50],0.87 µM,–
–,Cc1c(OCC(F)(F)F)ccnc1C[S+]([O-])c1nc2ccccc2n1NCCCCCO (racemic) [Example 54],3.88 µM,–
–,C=CCNn1c([S+]([O-])Cc2nccc(OCC(F)(F)F)c2C)nc2ccccc21 (racemic) [Example 64],2.28 µM,–
–,"Cc1c(OCC(F)(F)F)ccnc1C[S+]([O-])c1nc2ccccc2n1N (single isomer, unassigned; (+)) (as salt: tartrate) [(+) isomer of Example 1, (+)-1-Amino-2-[[4-(2,2,2-trifluoroethoxy)-3-methylpyridin-2-yl]methylsulfinyl]benzimidazole]",–,melting point: 111 to 113 °C
–,"Cc1c(OCC(F)(F)F)ccnc1C[S+]([O-])c1nc2ccccc2n1NCCCO (single isomer, unassigned; (+)) [(+) Isomer of Example 36]",–,Gastric acid secretion inhibitory effect ED50 [2]: 1.1 mg/kg; CYP2C19 activity inhibition (%) ([3]; 10 µM): 70.6%
35.4%,"COc1ccc2nc([S@@+]([O-])Cc3ncc(C)c(OC)c3C)[nH]c2c1 [Esomeprazole, esomeprazole, reference compound]",–,ED50 [2]: 2.9 mg/kg
–,CBc1cc(C)nc(C[S+]([O-])c2nc3ccccc3n2N)c1 (stereo not drawn) [Example 7],–,melting point: 130 to 133 °C
–,Cc1c(OCC(F)(F)F)ccnc1C[S+]([O-])c1nc2cc(OC(F)F)ccc2n1N (stereo not drawn) [Example 68],3.2 µM,melting point: 194 to 195 °C
62%,COc1ccc2nc([S+]([O-])Cc3ncc(C)c(OC)c3C)n(N)c2n1 (stereo not drawn) [Example 78],–,melting point: 174 to 175 °C
8.7%,"Cc1c(OCC(F)(F)F)ccnc1C[S+]([O-])c1nc2ccccc2[nH]1 (stereo not drawn) [Lansoprazole, lansoprazole, reference compound]",–,ED50 [2]: 1.1 mg/kg
18.4%,"COc1ccc2[nH]c([S+]([O-])Cc3ncc(C)c(OC)c3C)nc2c1 (stereo not drawn) [Omeprazole, omeprazole, reference compound]",–,ED50 [2]: 3.6 mg/kg
33.1%,"COc1ccnc(C[S+]([O-])c2nc3ccc(OC(F)F)cc3[nH]2)c1OC (stereo not drawn) [Pantoprazole, pantoprazole, reference compound]",–,ED50 [2]: 0.34 mg/kg
39.8%,"COCCCOc1ccnc(C[S+]([O-])c2nc3ccccc3[nH]2)c1C (stereo not drawn) [Rabeprazole, rabeprazole, reference compound]",–,ED50 [2]: 2.5 mg/kg

Structure (SMILES),CYP2C19 activity inhibition (%) [3],IC50 [1],further results
COc1c(OCCCC(F)(F)F)ccnc1C[S+]([O-])c1nc2ccccc2n1N (racemic) [Example 26],73.2%,–,Gastric acid secretion inhibitory effect ED50 [2]: 2.6 mg/kg
